Measurements published in patent US9187773B2, “Method for improving acid tolerance of Propionibacterium acidipropionici” (Jiangnan University, priority 2012, dated 2015).

What was measured:
Assay type in all cases: cell-based, Propionibacterium acidipropionici
P. acidipropionici [1] = experiment: Acid tolerance of P. acidipropionici with amino acid addition (growth in seed medium containing PA); settings: for Acid tolerance: seed medium with 2.5-5 g/L PA, 30° C., 40 h; for increase of the acid concentration that P. acidipropionici can tolerate: with addition of the amino acid, versus 2.5 g/L PA without amino acid
Procedure: The present invention provides a method for improving acid tolerance of P. acidipropionici by adding arginine and/or aspartic acid in the culture.
P. acidipropionici was first inoculated with sterile seed medium in anaerobic jars. The anaerobic jars were incubated at 30° C. for 60 h. To determine the effects of adding amino acids on acid tolerance of P. acidipropionici, the culture broth was transferred into anaerobic jars containing fresh seed medium with 2.5-5 g/L PA, 5-30 mM arginine and/or 5-30 mM aspartic acid added. The strains were then incubated at 30° C. for 40 h.
The P. acidipropionici was bought from China General Microbiological Culture Collection, and the strain code is CGMCC 1.2230.
The seed medium: 10 g/L yeast extract, 5 g/L tryptic soy broth, 1.5 g/L KH2PO4, 2.5 g/L K2HPO4, pH 7.0.
(§1) To determine the effects of adding arginine on acid tolerance of P. acidipropionici, the strains were inoculated with an inoculum size of 1% (v/v) into anaerobic jars containing 100 mL sterile seed medium. The anaerobic jars were incubated at 30° C. for 60 hours. And then, the culture broth was transferred into anaerobic jars containing fresh seed medium with 2.5-5 g/L PA and 0-30 mM arginine by an inoculum size of 1% (v/v) and incubated at 30° C. for 40 hours.
as §1, with “of adding aspartic acid on acid” for “of adding arginine on acid”, “jars containing (volume: 100 mL) 100 mL” for “jars containing 100 mL”, “0-30 mM aspartic acid by an” for “0-30 mM arginine by an”

P. acidipropionici [2] = experiment: PA production of P. acidipropionici with amino acid addition (fermentation, HPLC analysis); settings: 30° C., 150 h
Procedure: To determine the effects of adding amino acids on PA production of P. acidipropionici, P. acidipropionici was inoculated with sterile seed medium in anaerobic jars. The anaerobic jars were incubated at 30° C. for 60 h. The culture broth was then transferred into anaerobic jars containing fresh culture medium. The PA fermentations with culture medium with or without addition of arginine and aspartic acid. The PA fermentations with culture medium without addition of arginine and aspartic acid were used as control.
The culture medium: 10 g/L yeast extract, 5 g/L tryptone, 1.5 g/L KH2PO4, 2.5 g/L K2HPO4, 25 g/L glycerol, 10 mg/L CoCl2, 30 g/L CaCO3, 5-30 mM arginine and/or 5-30 mM aspartic acid, pH 7.0.
(§2) To determine the effects of adding arginine on PA production of P. acidipropionici, the strains were inoculated with an inoculum size of 1% (v/v) into anaerobic jars containing 100 mL sterile seed medium. And then the seed culture was inoculated with an inoculum size of 10% (v/v) into anaerobic jars (volume: 100 mL) containing 50 mL culture medium into which certain amount of arginine was added. The anaerobic jars were incubated at 30° C. for 150 h.
(§3) Fermentation broth was centrifuged at 8000 rpm for 5 min, and the supernatant liquid was collected for analysis of PA. The supernatant liquid was diluted by 10 times with 3.68 mol/L sulphuric acid and then filtered with 0.22 μm pore size filter. The samples were analyzed by HPLC. As shown in Table 1 and FIG. 2, addition of amino acids increased PA production.
as §2, with “aspartic acid” for “arginine”, “hours.” for “h.”
as §3, with “Table 2” for “Table 1”

P. acidipropionici [3] = experiment: as above
[4] = amino acid concentration 10 mM in culture medium
[5] = amino acid concentration 20 mM in culture medium
[6] = amino acid concentration 30 mM in culture medium

Structure (SMILES)	Acid tolerance (P. acidipropionici [1]; amino acid concentration 10 mM)	Acid tolerance (P. acidipropionici [1]; amino acid concentration 20 mM)	Acid tolerance (P. acidipropionici [1]; amino acid concentration 30 mM)	increase of the acid concentration that P. acidipropionici can tolerate (P. acidipropionici [1])	PA production (P. acidipropionici [2]; [4])	PA production (P. acidipropionici [2]; [5])	PA production (P. acidipropionici [2]; [6])	PA production (P. acidipropionici [3]; 30 mM added at the logarithmic phase of fermentation)	PA production (P. acidipropionici [3]; 30 mM added at the stable phase of fermentation)	PA production (P. acidipropionici [3]; 20 mM added at the logarithmic phase of fermentation)	PA production (P. acidipropionici [3]; 20 mM added at the stable phase of fermentation)
N=C(N)NCCC[C@H](N)C(=O)O [Arginine, arginine]	3 g/L	4 g/L	4 g/L	60%	10.66 g/L	10.60 g/L	13.99 g/L	12.60 g/L	10.65 g/L	–	–
N[C@@H](CC(=O)O)C(=O)O [Aspartic acid, aspartic acid]	2.5 g/L	3 g/L	3 g/L	20%	12.54 g/L	12.97 g/L	12.87 g/L	–	–	12.75 g/L	10.66 g/L
